Data on two molecules can be found in patent publication US20250041380A1, “R[…] FOR SARS-COV2 DISEASE” (priority 2021, published 2025).

One test addresses T1, Cathepsin L (Homo sapiens, UniProt P07711).
T1 construct: purchased
In kind it is biochemical.

The next test concerns the target T2, DPP4 (Homo sapiens, UniProt P27487).
T2 construct: purchased
In kind it is biochemical.

Like-named read-outs stand apart in the source and are kept apart here.

T1 sequence (P07711 114-333): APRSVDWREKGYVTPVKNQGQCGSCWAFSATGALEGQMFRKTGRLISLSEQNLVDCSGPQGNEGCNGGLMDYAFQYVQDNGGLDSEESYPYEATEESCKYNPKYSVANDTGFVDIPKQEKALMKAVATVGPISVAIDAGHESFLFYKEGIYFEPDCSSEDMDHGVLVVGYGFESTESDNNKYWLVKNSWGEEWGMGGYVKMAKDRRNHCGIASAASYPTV
T2 sequence (P27487 whole entry): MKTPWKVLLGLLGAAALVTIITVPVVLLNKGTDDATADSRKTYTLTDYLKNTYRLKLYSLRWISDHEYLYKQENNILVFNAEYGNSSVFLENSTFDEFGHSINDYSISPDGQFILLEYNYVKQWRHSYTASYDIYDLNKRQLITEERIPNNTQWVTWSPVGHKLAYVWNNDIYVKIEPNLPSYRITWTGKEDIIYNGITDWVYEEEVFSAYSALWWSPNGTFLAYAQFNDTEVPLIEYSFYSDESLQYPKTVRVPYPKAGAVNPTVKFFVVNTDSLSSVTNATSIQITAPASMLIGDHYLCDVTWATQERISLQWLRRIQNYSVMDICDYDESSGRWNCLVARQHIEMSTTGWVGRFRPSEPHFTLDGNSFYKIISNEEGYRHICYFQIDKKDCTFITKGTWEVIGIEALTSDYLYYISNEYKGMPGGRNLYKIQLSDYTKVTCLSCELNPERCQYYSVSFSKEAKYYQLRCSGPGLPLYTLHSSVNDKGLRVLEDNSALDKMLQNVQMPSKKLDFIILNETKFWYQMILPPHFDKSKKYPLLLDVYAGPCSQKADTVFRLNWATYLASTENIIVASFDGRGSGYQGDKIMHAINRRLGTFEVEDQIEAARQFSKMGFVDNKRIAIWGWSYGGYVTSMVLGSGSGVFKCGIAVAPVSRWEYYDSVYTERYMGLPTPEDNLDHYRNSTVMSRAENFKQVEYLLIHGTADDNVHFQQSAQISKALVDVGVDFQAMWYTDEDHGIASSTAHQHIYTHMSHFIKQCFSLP

With `CC(C)C[C@H](NC(=O)[C@H]1O[C@@H]1C(=O)O)C(=O)NCCCCN=C(N)N` [E-64], the “% Inhibition wrt Enzyme Control” value came to 7.4% at Cathepsin L (0.0001 μM), 24.2% on Cathepsin L (0.01 μM) and 61.0% on Cathepsin L (0.1 µM).
Turning to `CC(C)C[C@H](NC(=O)OCc1ccccc1)C(=O)N[C@@H](C[C@@H]1CCNC1=O)C(O)S(=O)(=O)[O-].[Na+]` (stereo partly shown) [GC376], the “% Inhibition wrt Enzyme Control” value on DPP4 (0.001 μM) is on record as 32.4%; on DPP4 (0.01 μM), 76.2%; on DPP4 (0.1 µM), 87.1%; on DPP4 (1 µM) it was 99.5%.
